Measurements reported in ChEMBL document CHEMBL1275492, “In vitro activity of ceftobiprole against pathogens from two phase 3 clinical trials of complicated skin and skin structure infections” (2008).
≈ marks a conversion by molar mass, not a printed value.

Tests used:
Assay type in all cases: functional
Staphylococcus aureus [1] = assay: Antibacterial activity against methicillin resistant Staphylococcus aureus obtained from complicated skin and skin structure infections by agar dilution method
Enterococcus faecium = assay: Antibacterial activity against Enterococcus faecium obtained from complicated skin and skin structure infections by agar dilution method
Lactococcus lactis = assay: Antibacterial activity against Lactococcus lactis obtained from complicated skin and skin structure infections by agar dilution method
Bacillus = assay: Antibacterial activity against Bacillus spp. obtained from complicated skin and skin structure infections by agar dilution method
Gemella = assay: Antibacterial activity against Gemella spp. obtained from complicated skin and skin structure infections by agar dilution method
Streptococcus agalactiae = assay: Antibacterial activity against Streptococcus agalactiae obtained from complicated skin and skin structure infections by agar dilution method
Staphylococcus aureus [2] = assay: Antibacterial activity against Staphylococcus aureus obtained from complicated skin and skin structure infections by agar dilution method
Streptococcus pyogenes = assay: Antibacterial activity against Streptococcus pyogenes obtained from complicated skin and skin structure infections by agar dilution method
Pseudomonas fluorescens = assay: Antibacterial activity against Pseudomonas fluorescens obtained from complicated skin and skin structure infections by agar dilution method
Escherichia coli = assay: Antibacterial activity against Escherichia coli obtained from complicated skin and skin structure infections by agar dilution method
[3] = tested on: Staphylococcus intermedius; assay: Antibacterial activity against Staphylococcus intermedius obtained from complicated skin and skin structure infections by agar dilution method
Gemella morbillorum = assay: Antibacterial activity against Gemella morbillorum obtained from complicated skin and skin structure infections […]
Providencia stuartii = assay: Antibacterial activity against Providencia stuartii obtained from complicated skin and skin structure infections by agar dilution method
Serratia marcescens = assay: Antibacterial activity against Serratia marcescens obtained from complicated skin and skin structure infections by agar dilution method
Enterobacter cloacae = assay: Antibacterial activity against Enterobacter cloacae obtained from complicated skin and skin structure infections by agar dilution method
Staphylococcus warneri = assay: Antibacterial activity against coagulase-negative Staphylococcus warneri obtained from complicated skin and skin structure infections by agar dilution method
Morganella morganii = assay: Antibacterial activity against Morganella morganii obtained from complicated skin and skin structure infections by agar dilution method
Bacteroides fragilis = assay: Antibacterial activity against Bacteroides fragilis obtained from complicated skin and skin structure infections by agar dilution method
Proteus penneri = assay: Antibacterial activity against Proteus penneri obtained from complicated skin and skin structure infections by agar dilution method
Enterococcus faecalis = assay: Antibacterial activity against Enterococcus faecalis obtained from complicated skin and skin structure infections by agar dilution method
Klebsiella oxytoca = assay: Antibacterial activity against Klebsiella oxytoca obtained from complicated skin and skin structure infections by agar dilution method
Acinetobacter baumannii = assay: Antibacterial activity against Acinetobacter baumannii obtained from complicated skin and skin structure infections by agar dilution method
Mammaliicoccus sciuri = assay: Antibacterial activity against coagulase-negative Staphylococcus sciuri obtained from complicated skin and skin structure infections by agar dilution method
[4] = tested on: Staphylococcus lugdunensis; assay: Antibacterial activity against methicillin-resistant, oxacillin-susceptible, coagulase-negative, mecA-positive Staphylococcus lugdunensis obtained from complicated skin and skin structure infections by agar dilution method
[5] = Antibacterial activity against Streptococcus sp. 'group C' obtained from complicated skin and skin structure infections by agar dilution method
Staphylococcus capitis = assay: Antibacterial activity against coagulase-negative Staphylococcus capitis obtained from complicated skin and skin structure infections by agar dilution method
[6] = Antibacterial activity against Streptococcus sp. 'group G' obtained from complicated skin and skin structure infections by agar dilution method
Citrobacter freundii = assay: Antibacterial activity against Citrobacter freundii obtained from complicated skin and skin structure infections by agar dilution method
Aerococcus viridans = assay: Antibacterial activity against Aerococcus viridans obtained from complicated skin and skin structure infections by agar dilution method
Proteus mirabilis = assay: Antibacterial activity against Proteus mirabilis obtained from complicated skin and skin structure infections by agar dilution method
Staphylococcus = assay: Antibacterial activity against methicillin-susceptible, coagulase-negative Staphylococcus obtained from complicated skin and skin structure infections by agar dilution method
[7] = tested on: Staphylococcus saprophyticus; assay: Antibacterial activity against coagulase-negative Staphylococcus saprophyticus obtained from complicated skin and skin structure infections by agar dilution method
Klebsiella aerogenes = assay: Antibacterial activity against Enterobacter aerogenes obtained from complicated skin and skin structure infections by agar dilution method
Proteus vulgaris = assay: Antibacterial activity against Proteus vulgaris obtained from complicated skin and skin structure infections by agar dilution method
[8] = tested on: Streptococcus constellatus; assay: Antibacterial activity against Streptococcus constellatus obtained from complicated skin and skin structure infections by agar dilution method
Pseudomonas aeruginosa = assay: Antibacterial activity against Pseudomonas aeruginosa obtained from complicated skin and skin structure infections by agar dilution method
Citrobacter braakii = assay: Antibacterial activity against Citrobacter braakii obtained from complicated skin and skin structure infections by agar dilution method
Enterobacter amnigenus = assay: Antibacterial activity against Enterobacter amnigenus obtained from complicated skin and skin structure infections by agar dilution method; conditions: Lelliottia amnigena
Veillonella = assay: Antibacterial activity against Veillonella spp. obtained from complicated skin and skin structure infections by agar dilution method
Klebsiella pneumoniae = assay: Antibacterial activity against Klebsiella pneumoniae obtained from complicated skin and skin structure infections by agar dilution method
[9] = tested on: Staphylococcus haemolyticus; assay: Antibacterial activity against coagulase-negative Staphylococcus haemolyticus obtained from complicated skin and skin structure infections by agar dilution method
Salmonella = assay: Antibacterial activity against Salmonella spp. obtained from complicated skin and skin structure infections by agar dilution method
Micrococcus = assay: Antibacterial activity against Micrococcus spp. obtained from complicated skin and skin structure infections by agar dilution method
[10] = tested on: Stenotrophomonas maltophilia; assay: Antibacterial activity against Stenotrophomonas maltophilia obtained from complicated skin and skin structure infections by agar dilution method
[11] = tested on: Staphylococcus epidermidis; assay: Antibacterial activity against coagulase-negative Staphylococcus epidermidis obtained from complicated skin and skin structure infections by agar dilution method
Staphylococcus hominis = assay: Antibacterial activity against coagulase-negative Staphylococcus hominis obtained from complicated skin and skin structure infections by agar dilution method
Staphylococcus aureus [12] = assay: Antibacterial activity against methicillin susceptible Staphylococcus aureus obtained from complicated skin and skin structure infections by agar dilution method
Staphylococcus cohnii = assay: Antibacterial activity against coagulase-negative Staphylococcus cohnii obtained from complicated skin and skin structure infections by agar dilution method
Streptococcus mitis = assay: Antibacterial activity against Streptococcus mitis obtained from complicated skin and skin structure infections by agar dilution method
Prevotella = assay: Antibacterial activity against Prevotella spp. obtained from complicated skin and skin structure infections by agar dilution method
[13] = tested on: Staphylococcus lugdunensis; assay: Antibacterial activity against coagulase-negative Staphylococcus lugdunensis obtained from complicated skin and skin structure infections by agar dilution method

For Nc1nc(/C(=N/O)C(=O)N[C@@H]2C(=O)N3C(C(=O)O)=C(/C=C4\CCN([C@@H]5CCNC5)C4=O)CS[C@H]23)ns1 [CEFTOBIPROLE], the MIC50 (Staphylococcus aureus [1]) was 0.5 µg/mL (≈ 0.935 µM), the MIC90 (Staphylococcus aureus [1]) was 2 µg/mL (≈ 3.74 µM) and the MIC50 (Enterococcus faecium) was over 64 µg/mL. It also gave an MIC50 (Lactococcus lactis) of 0.12 µg/mL (≈ 0.224 µM), an MIC90 (Lactococcus lactis) of 0.25 µg/mL (≈ 0.468 µM) and an MIC50 (Bacillus) of 0.12 µg/mL (≈ 0.224 µM). The MIC90 (Bacillus) was 0.25 µg/mL (≈ 0.468 µM), the MIC50 (Gemella) was 0.12 µg/mL (≈ 0.224 µM) and the MIC90 (Gemella) was 0.25 µg/mL (≈ 0.468 µM). It also gave an MIC50 (Streptococcus agalactiae) of 0.06 µg/mL (≈ 0.112 µM), an MIC90 (Streptococcus agalactiae) of 0.12 µg/mL (≈ 0.224 µM) and an MIC50 (Staphylococcus aureus [2]) of 0.5 µg/mL (≈ 0.935 µM). For the same compound, the MIC90 (Staphylococcus aureus [2]) was 1 µg/mL (≈ 1.87 µM), the MIC (Streptococcus pyogenes) was 0.008 µg/mL (≈ 0.015 µM) and the MIC50 (Streptococcus pyogenes) was 0.008 µg/mL (≈ 0.015 µM). For the same compound, the MIC90 (Streptococcus pyogenes) was 0.015 µg/mL (≈ 0.0281 µM), the MIC50 (Pseudomonas fluorescens) was over 64 µg/mL and the MIC90 (Pseudomonas fluorescens) was over 64 µg/mL. The MIC50 (Escherichia coli) was 0.06 µg/mL (≈ 0.112 µM), the MIC90 (Escherichia coli) was 0.12 µg/mL (≈ 0.224 µM) and the MIC50 [3] was 0.06 µg/mL (≈ 0.112 µM). It also gave an MIC90 [3] of 0.12 µg/mL (≈ 0.224 µM), an MIC50 (Gemella morbillorum) of 0.12 µg/mL (≈ 0.224 µM) and an MIC90 (Gemella morbillorum) of 0.25 µg/mL (≈ 0.468 µM). It also gave an MIC50 (Providencia stuartii) of 0.06 µg/mL (≈ 0.112 µM), an MIC90 (Providencia stuartii) of 32 µg/mL (≈ 59.9 µM) and an MIC50 (Serratia marcescens) of 0.06 µg/mL (≈ 0.112 µM). It also gave an MIC90 (Serratia marcescens) of 32 µg/mL (≈ 59.9 µM), an MIC50 (Enterobacter cloacae) of 0.06 µg/mL (≈ 0.112 µM) and an MIC90 (Enterobacter cloacae) of over 64 µg/mL. The MIC50 (Staphylococcus warneri) was 0.5 µg/mL (≈ 0.935 µM), the MIC90 (Staphylococcus warneri) was 1 µg/mL (≈ 1.87 µM) and the MIC50 (Morganella morganii) was 0.12 µg/mL (≈ 0.224 µM). For the same compound, the MIC90 (Morganella morganii) was 64 µg/mL (≈ 120 µM), the MIC (Bacteroides fragilis) was at most 0.03 µg/mL and the MIC50 (Proteus penneri) was 0.06 µg/mL (≈ 0.112 µM). It also gave an MIC90 (Proteus penneri) of 32 µg/mL (≈ 59.9 µM), an MIC50 (Enterococcus faecalis) of 0.5 µg/mL (≈ 0.935 µM) and an MIC90 (Enterococcus faecalis) of 0.5 µg/mL (≈ 0.935 µM). The MIC50 (Klebsiella oxytoca) was 0.06 µg/mL (≈ 0.112 µM), the MIC90 (Klebsiella oxytoca) was 32 µg/mL (≈ 59.9 µM) and the MIC50 (Acinetobacter baumannii) was over 64 µg/mL. For the same compound, the MIC90 (Acinetobacter baumannii) was over 64 µg/mL, the MIC50 (Mammaliicoccus sciuri) was 0.5 µg/mL (≈ 0.935 µM) and the MIC90 (Mammaliicoccus sciuri) was 1 µg/mL (≈ 1.87 µM). It also gave an MIC50 [4] of 0.5 µg/mL (≈ 0.935 µM), an MIC90 [4] of 2 µg/mL (≈ 3.74 µM) and an MIC50 [5] of 0.06 µg/mL (≈ 0.112 µM). It also gave an MIC90 [5] of 0.12 µg/mL (≈ 0.224 µM), an MIC50 (Staphylococcus capitis) of 0.5 µg/mL (≈ 0.935 µM) and an MIC90 (Staphylococcus capitis) of 1 µg/mL (≈ 1.87 µM). It also gave an MIC50 [6] of 0.008 µg/mL (≈ 0.015 µM), an MIC90 [6] of 0.06 µg/mL (≈ 0.112 µM) and an MIC50 (Citrobacter freundii) of 0.06 µg/mL (≈ 0.112 µM). For the same compound, the MIC90 (Citrobacter freundii) was 32 µg/mL (≈ 59.9 µM), the MIC50 (Aerococcus viridans) was 0.12 µg/mL (≈ 0.224 µM) and the MIC90 (Aerococcus viridans) was 0.25 µg/mL (≈ 0.468 µM). The MIC50 (Proteus mirabilis) was 0.03 µg/mL (≈ 0.0561 µM), the MIC90 (Proteus mirabilis) was 0.12 µg/mL (≈ 0.224 µM) and the MIC50 (Staphylococcus) was 0.25 µg/mL (≈ 0.468 µM). The MIC90 (Staphylococcus) was 0.5 µg/mL (≈ 0.935 µM), the MIC50 [7] was 0.5 µg/mL (≈ 0.935 µM) and the MIC90 [7] was 1 µg/mL (≈ 1.87 µM). For the same compound, the MIC50 (Klebsiella aerogenes) was 0.06 µg/mL (≈ 0.112 µM), the MIC90 (Klebsiella aerogenes) was 32 µg/mL (≈ 59.9 µM) and the MIC50 (Proteus vulgaris) was 0.06 µg/mL (≈ 0.112 µM). The MIC90 (Proteus vulgaris) was 32 µg/mL (≈ 59.9 µM), the MIC50 [8] was 0.06 µg/mL (≈ 0.112 µM) and the MIC90 [8] was 0.12 µg/mL (≈ 0.224 µM). For the same compound, the MIC50 (Pseudomonas aeruginosa) was 4 µg/mL (≈ 7.48 µM), the MIC90 (Pseudomonas aeruginosa) was over 64 µg/mL and the MIC50 (Citrobacter braakii) was 0.06 µg/mL (≈ 0.112 µM). The MIC90 (Citrobacter braakii) was 32 µg/mL (≈ 59.9 µM), the MIC50 (Enterobacter amnigenus) was 0.06 µg/mL (≈ 0.112 µM) and the MIC90 (Enterobacter amnigenus) was 32 µg/mL (≈ 59.9 µM). It also gave an MIC (Veillonella) of at most 0.03 µg/mL, an MIC50 (Klebsiella pneumoniae) of 0.06 µg/mL (≈ 0.112 µM) and an MIC90 (Klebsiella pneumoniae) of 32 µg/mL (≈ 59.9 µM). The MIC50 [9] was 0.5 µg/mL (≈ 0.935 µM), the MIC90 [9] was 1 µg/mL (≈ 1.87 µM) and the MIC50 (Salmonella) was 0.06 µg/mL (≈ 0.112 µM). For the same compound, the MIC90 (Salmonella) was 32 µg/mL (≈ 59.9 µM), the MIC50 (Micrococcus) was 0.12 µg/mL (≈ 0.224 µM) and the MIC90 (Micrococcus) was 0.25 µg/mL (≈ 0.468 µM). For the same compound, the MIC50 [10] was over 64 µg/mL, the MIC90 [10] was over 64 µg/mL and the MIC50 [11] was 0.5 µg/mL (≈ 0.935 µM). The MIC90 [11] was 1 µg/mL (≈ 1.87 µM), the MIC50 (Staphylococcus hominis) was 0.5 µg/mL (≈ 0.935 µM) and the MIC90 (Staphylococcus hominis) was 1 µg/mL (≈ 1.87 µM). For the same compound, the MIC50 (Staphylococcus aureus [12]) was 0.25 µg/mL (≈ 0.468 µM), the MIC90 (Staphylococcus aureus [12]) was 0.5 µg/mL (≈ 0.935 µM) and the MIC50 (Staphylococcus cohnii) was 0.5 µg/mL (≈ 0.935 µM). It also gave an MIC90 (Staphylococcus cohnii) of 1 µg/mL (≈ 1.87 µM), an MIC50 (Streptococcus mitis) of 0.06 µg/mL (≈ 0.112 µM) and an MIC90 (Streptococcus mitis) of 0.12 µg/mL (≈ 0.224 µM). The MIC (Prevotella) was at most 0.03 µg/mL, the MIC50 [13] was 0.5 µg/mL (≈ 0.935 µM) and the MIC90 [13] was 1 µg/mL (≈ 1.87 µM).
